Assay results: patent US8637511B2, “Aminopyrimidines useful as kinase inhibitors” (Vertex Pharmaceuticals Incorporated, priority 2005, dated 2014)
Like-named read-outs stand apart in the source and are kept apart here.

Tests used:
FLT-3 = molecular target: T1, FLT-3 (Homo sapiens, UniProt P36888); test: FLT-3 inhibition assay, radiometric filter-binding; type: biochemical
T1 sequence (P36888 27-993): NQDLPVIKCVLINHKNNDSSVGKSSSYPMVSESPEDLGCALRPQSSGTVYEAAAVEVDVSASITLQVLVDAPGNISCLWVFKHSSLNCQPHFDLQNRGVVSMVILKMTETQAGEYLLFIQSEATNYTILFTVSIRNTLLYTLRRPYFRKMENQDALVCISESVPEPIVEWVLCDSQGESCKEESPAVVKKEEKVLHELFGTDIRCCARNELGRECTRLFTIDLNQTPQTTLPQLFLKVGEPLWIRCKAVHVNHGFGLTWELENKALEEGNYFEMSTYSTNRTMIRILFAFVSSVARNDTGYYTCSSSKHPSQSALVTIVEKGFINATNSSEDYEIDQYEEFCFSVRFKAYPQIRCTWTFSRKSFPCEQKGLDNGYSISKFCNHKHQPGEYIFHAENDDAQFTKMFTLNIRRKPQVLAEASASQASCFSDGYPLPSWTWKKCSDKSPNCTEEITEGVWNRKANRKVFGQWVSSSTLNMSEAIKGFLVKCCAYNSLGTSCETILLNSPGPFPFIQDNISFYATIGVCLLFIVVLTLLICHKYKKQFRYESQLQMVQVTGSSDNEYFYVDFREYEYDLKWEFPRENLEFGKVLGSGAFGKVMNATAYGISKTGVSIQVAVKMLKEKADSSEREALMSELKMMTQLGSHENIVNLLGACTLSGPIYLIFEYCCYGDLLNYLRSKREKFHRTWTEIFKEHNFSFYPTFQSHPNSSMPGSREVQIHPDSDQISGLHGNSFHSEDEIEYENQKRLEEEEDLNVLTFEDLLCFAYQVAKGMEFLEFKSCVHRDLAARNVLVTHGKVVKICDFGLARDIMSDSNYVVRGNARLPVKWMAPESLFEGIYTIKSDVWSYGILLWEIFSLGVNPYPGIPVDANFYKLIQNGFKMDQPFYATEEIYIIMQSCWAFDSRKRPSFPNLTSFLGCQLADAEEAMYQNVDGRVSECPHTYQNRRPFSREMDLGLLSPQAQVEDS

Colo205 cells = test: Analysis of cell proliferation and viability; type: cell-based; conditions: Homo sapiens, COLO 205, Colo205 cells, read-out: IC50 value
Aurora-2 (Aurora A) = molecular target: T2, Aurora-2 (Aurora A) (Homo sapiens, UniProt O14965); test: Aurora-2 (Aurora A) inhibition assay, coupled enzyme; type: biochemical
T2 sequence (O14965 1-403): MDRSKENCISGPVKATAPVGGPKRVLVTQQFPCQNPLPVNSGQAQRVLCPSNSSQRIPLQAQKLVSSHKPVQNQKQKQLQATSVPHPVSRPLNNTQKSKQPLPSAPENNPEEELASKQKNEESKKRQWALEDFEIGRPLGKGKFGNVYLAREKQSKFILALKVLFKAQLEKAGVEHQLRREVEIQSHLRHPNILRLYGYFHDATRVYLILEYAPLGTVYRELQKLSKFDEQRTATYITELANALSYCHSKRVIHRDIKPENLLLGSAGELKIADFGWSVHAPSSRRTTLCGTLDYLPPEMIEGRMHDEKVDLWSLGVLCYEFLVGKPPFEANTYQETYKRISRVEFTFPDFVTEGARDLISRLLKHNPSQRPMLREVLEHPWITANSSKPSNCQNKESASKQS
Outline: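 These rates came from NADH consumption coupled through pyruvate kinase and lactate dehydrogenase (100 mM Hepes pH 7.5, 10 mM MgCl2, 300 μM NADH). Aurora-2 was present at 40 nM, and the reaction ran at 30 °C after a 10 min preincubation.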

[1] = read-out: Aurora A kinase Ki value

Compound	Ki (FLT-3; read-out: FLT-3 Ki value) [nM]	IC50 (Colo205 cells; incubated for 72 hours) [nM]	Ki (Aurora-2 (Aurora A); [1]) [nM]	Ki (FLT-3) [nM]	IC50 (Colo205 cells; incubated for 96 hours) [nM]	Ki (Aurora-2 (Aurora A)) [nM]
Cc1cc(Nc2cc(N3CCC3)nc(Sc3ccc(NC(=O)C(C)(C)C)cc3)n2)[nH]n1 [Compound 114]	150 to 1000	> 200	1 to 5			
Cc1cc(Nc2cc(N3CCC3)nc(Sc3ccc(N(C)C(=O)c4ccccc4F)cc3)n2)n[nH]1 [Compound 10]			5 to 200	50 to 150		
Cc1cc(Nc2cc(N3CCC3)nc(Sc3ccc(NC(=O)C(F)(F)F)cc3)n2)[nH]n1 [Compound 158]	50 to 150	> 200	1 to 5			
Cc1cc(Nc2cc(N3CCC3)nc(Sc3ccc(NC(=O)C4CC4)cc3)n2)n[nH]1 [Compound 17]	50 to 150		1 to 5		50 to 1000	
Cc1cc(Nc2cc(N3CCC3)nc(Oc3ccc(NC(=O)c4ccccc4C(F)(F)F)cc3)n2)[nH]n1 [Compound 134]		30 to 200	1 to 5	50 to 150		
Cc1cc(Nc2cc(N3CC(N4CCOCC4)C3)nc(Sc3ccc(NC(=O)C4(C(F)(F)F)CC4)cc3)n2)[nH]n1 [Compound 191]	150 to 1000	≤ 30	≤ 1			
Cc1cc(Nc2cc(N3CCC3)nc(Sc3ccc(N)cc3)n2)[nH]n1 [Compound 108]	≤ 50		5 to 200		> 1000	
Cc1cc(Nc2cc(N3CCC3)nc(Sc3ccc(NC(=O)c4ccc(Cl)cc4Cl)cc3)n2)n[nH]1 [Compound 162]				150 to 1000	50 to 1000	≤ 1
CCC(=O)Nc1ccc(Sc2nc(Nc3cc(C4CC4)n[nH]3)cc(N3CC(N4CCOCC4)C3)n2)cc1 [Compound 78]			≤ 1	≤ 50	≤ 50	
CCC(=O)Nc1ccc(Sc2nc(Nc3cc(C)n[nH]3)cc(N3CC(C)(OC(C)C)C3)n2)cc1 [Compound 95]			1 to 5	50 to 150	≤ 50	
Cc1cc(Nc2cc(N3CCC3)nc(Sc3ccc(NC(=O)Cc4ccccc4)cc3)n2)n[nH]1 [Compound 35]			1 to 5	50 to 150	50 to 1000	
CCC(=O)Nc1ccc(Sc2nc(Nc3cc(C)n[nH]3)cc(N3CC(O)(C(F)(F)F)C3)n2)cc1 [Compound 94]			1 to 5	≤ 50	50 to 1000	
Cc1cc(Nc2cc(N3CCC3)nc(Sc3ccc(NC(=O)Cc4cccc(Cl)c4)cc3)n2)[nH]n1 [Compound 58]	150 to 1000		1 to 5		50 to 1000	
Cc1cnc(Nc2cc(N3CC(N)C3)nc(Sc3ccc(NC(=O)C4CC4)cc3)n2)s1 [Compound 2]			5 to 200	≤ 50	50 to 1000	
CCC(=O)Nc1ccc(Sc2nc(Nc3cc(C4CC4)n[nH]3)cc(N3CC(C)(O)C3)n2)cc1 [Compound 76]			1 to 5	≤ 50	50 to 1000	
Cc1cc(Nc2cc(N3CCC3)nc(Sc3ccc(NC(=O)c4ocnc4C)cc3)n2)n[nH]1 [Compound 167]			5 to 200	150 to 1000	> 1000	
Cc1cnc(Nc2cc(N3CC(N(C)C)C3)nc(Sc3ccc(NC(=O)C4CC4)cc3)n2)s1 [Compound 1]			5 to 200	50 to 150	50 to 1000	

Compound	Ki (FLT-3; read-out: FLT-3 Ki value) [nM]	IC50 (Colo205 cells; incubated for 72 hours) [nM]	Ki (Aurora-2 (Aurora A); [1]) [nM]	Ki (FLT-3) [nM]	IC50 (Colo205 cells; incubated for 96 hours) [nM]	Ki (Aurora-2 (Aurora A)) [nM]
Cc1cc(Nc2cc(N3CCC3)nc(Sc3ccc(NC(=O)c4ccccc4N(C)C)cc3)n2)[nH]n1 [Compound 124]	150 to 1000	> 200	5 to 200			
CCC(=O)Nc1ccc(Sc2nc(C#CC(C)(C)N3CCC3)cc(Nc3cc(C)n[nH]3)n2)cc1 [Compound 77]			1 to 5	150 to 1000	50 to 1000	
Cc1cc(Nc2cc(N3CC(C)(O)C3)nc(Sc3ccc(NC(=O)c4ccccc4C(F)(F)F)cc3)n2)[nH]n1 [Compound 115]		30 to 200		50 to 150		≤ 1
CC1=NN=C(Nc2cc(N3CCC3)nc(Sc3ccc(NC(=O)c4ccccc4Cl)cc3)n2)C1 [Compound 5]	50 to 150	30 to 200	≤ 1		50 to 1000	
CC1=NN=C(Nc2cc(N3CCC3)nc(Sc3ccc(NC(=O)c4cccc(C(F)(F)F)c4F)cc3)n2)C1 [Compound 55]				150 to 1000	50 to 1000	≤ 1
CCCNC(=O)Nc1ccc(Sc2nc(Nc3cc(C)[nH]n3)cc(N3CCC3)n2)cc1 [Compound 73]			5 to 200	50 to 150	> 1000	
Cc1cc(Nc2cc(N3CCC3)nc(Sc3ccc(NC(=O)c4ccc(Cl)cc4)cc3)n2)n[nH]1 [Compound 54]				150 to 1000	50 to 1000	1 to 5
Cc1cc(Nc2cc(N3CCC3)nc(Sc3ccc(NC(=O)NCc4ccccc4)cc3)n2)n[nH]1 [Compound 74]			5 to 200	50 to 150	> 1000	
Cc1cc(Nc2cc(N3CC(F)(C4CC4)C3)nc(Sc3ccc(-c4ncc(C)o4)cc3)n2)[nH]n1 [Compound 175]		> 200	5 to 200	150 to 1000		
COC1CN(c2cc(Nc3cc(C)[nH]n3)nc(Sc3ccc(NC(=O)c4ccccc4Cl)cc3)n2)C1 [Compound 12]				50 to 150	≤ 50	≤ 1
Cc1ccc(C(=O)Nc2ccc(Sc3nc(Nc4cc(C)n[nH]4)cc(N4CCC4)n3)cc2)cn1 [Compound 145]	150 to 1000	> 200	5 to 200			
CC1=NN=C(Nc2cc(N3CCC3)nc(Sc3ccc(NC(=O)c4cccc(Cl)c4F)cc3)n2)C1 [Compound 61]			≤ 1	150 to 1000	50 to 1000	
CCC(=O)Nc1ccc(Sc2nc(Nc3cc(C)n[nH]3)cc(N3CC(C)(C#N)C3)n2)cc1 [Compound 79]	≤ 50		1 to 5		50 to 1000	
Cc1cc(Nc2cc(N3CC(C#N)C3)nc(Sc3ccc(NC(=O)c4ccccc4Cl)cc3)n2)n[nH]1 [Compound 16]		30 to 200	≤ 1	50 to 150	50 to 1000	
Cc1ccc2cc(Sc3nc(Nc4cc(C)[nH]n4)cc(N4CC(N5CCCC5)C4)n3)ccc2n1 [Compound 182]		≤ 30	1 to 5	50 to 150		
Cc1cc(Nc2cc(N3CC(F)(C4CC4)C3)nc(Sc3ccc(N)cc3)n2)[nH]n1 [Compound 209]			5 to 200	≤ 50		
